# Source: patent US5385833A, “Pseudomonas sp. ATCC No. 49794 alcohol dehydrogenase” (The Scripps Research Institute, priority 1992, dated 1995)
# Where two headings read alike, the source gives them in different places.
# Tests used:
# [1] = system: Pseudomonas sp. strain PED alcohol dehydrogenase; assay: PED alcohol dehydrogenase enzyme assay, reduction of carbonyl substrates (relative rates); format: biochemical
# [2] = system: PED alcohol dehydrogenase; assay: Kinetics and product inhibition of PED alcohol dehydrogenase, oxidation of 2-propanol with NAD; format: biochemical, Pseudomonas sp. strain PED; conditions: for Km: isolated PED alcohol dehydrogenase; for Product inhibition type versus 2-propanol / Product inhibition type versus NAD: oxidation of 2-propanol
# [3] = Table 1, reduction, 10 mM ketone, 0.45 mM NADH, PED, change in absorbance at 340 nm, Compound 2 = 1 (2.1 U/mg enzyme)
# [4] = Table 2, determined as described in Table 1 (10 mM ketone, 0.45 mM NADH, 340 nm)
smiles,measurement,setting,value
"O=C[C@@H]1C[C@H]1c1ccccc1 (relative stereo) [Compound 5, 1-carboxaldehyde-2-phenylcyclopropane]",Relative rate,[1]; [3],7
"O=C(c1ccccc1)C(F)(F)F [Compound 1, trifluoroacetophenone]",Relative rate,[1],7
"CC(=O)c1ccccc1 [Compound 2, acetophenone]",Relative rate,[1]; [3],1
same,Rate of reduction corresponding to relative rate 1,"[1]; footnote b of Table 1, 10 mM ketone, 0.45 mM NADH",2.1 U/mg enzyme
"CC(C)O [Compound 2-propanol, 2-propanol]",Km,[2],75 µM
same,specific activity,[2]; with respect to 2-propanol under saturating NAD conditions,36 U/mg
"CC(=O)C(=O)c1ccccc1 [Compound 3, 1-phenyl-1,2-propanedione]",Relative rate,[1],34
"COC(=O)C(=O)c1ccccc1 [Compound 4, methyl benzoylformate]",Relative rate,[1]; [3],4
"CC(=O)CCc1ccccc1 [Compound 6, 4-phenyl-2-butanone]",Relative rate,[1]; [3],6
same,Substrate quality compared with acetophenone,[1]; statement in words on Table 1,as good a substrate as is acetophenone
"O=C(c1ccccc1)C1CC1 [Compound 7, phenyl cyclopropyl ketone]",Relative rate,[1]; [3],< 1
O=C(CCCCl)c1ccccc1 [Compound 8],Relative rate,[1]; [3],4
"COC(=O)CC(=O)CCl [Compound 9, methyl 4-chloro-3-oxobutanoate]",Relative rate,[1],4
"CC(=O)CCC=C(C)C [Compound 10, 6-methyl-5-hepten-2-one]",Relative rate,[1],6
"CC(=O)CCCCl [Compound 11, 5-chloro-2-pentanone]",Relative rate,[1],5
CCCCC(=O)c1ccco1 [Compound 12],Relative rate,[1]; [3],< 0.1
"CCCCCC(=O)CC [Compound 13, 3-octanone]",Relative rate,[1]; [3],3
O=C(CCl)c1ccc(O)c(O)c1 [Compound 14],Relative rate,[1]; [3],< 0.1
O=C(CCCCl)c1ccc(O)cc1 [Compound 15],Relative rate,[1]; [3],0
O=C(CCCCl)c1ccc(F)cc1 [Compound 16],Relative rate,[1],0
O=C(CCCCl)c1cccs1 [Compound 17],Relative rate,[1]; [3],4
O=C(CC(=O)C(F)(F)F)c1cccs1 [Compound 18],Relative rate,[1]; [3],0
CC(=O)c1ccco1 [Compound 19],Relative rate,[1]; [3],0
COc1coc(C(C)=O)c1OC [Compound 20],Relative rate,[1]; [3],0.6
O=C1CCCCc2ccccc21 [Compound 21],Relative rate,[1]; [3],4
C=CCCC(C)=O [Compound 22],Relative rate,[1]; [4],8
CC(=O)CCC=C(C)C [Compound 23],Relative rate,[1],7
COC(C)=CC(C)=O [Compound 24],Relative rate,[1]; [4],0
CC(=O)CC(C)=O [Compound 25],Relative rate,[1]; [4],32
CC(=O)C(Cl)C(C)=O [Compound 26],Relative rate,[1],336
COC(=O)CC(C)=O [Compound 27],Relative rate,[1],135
CC(=O)CCC(C)=O [Compound 28],Relative rate,[1],9
CC(=O)CCC(=O)O [Compound 29],Relative rate,[1]; [4],0
CCCCCC(=O)C(=O)O [Compound 30],Relative rate,[1]; [4],0
COC(=O)C1CCCC1=O (stereo not drawn) [Compound 31],Relative rate,[1]; [4],22
CC1C(=O)CCC1=O [Compound 32],Relative rate,[1]; [4],0
CCOC(=O)CC(=O)CC [Compound 33],Relative rate,[1]; [4],6
C=CC(=O)CCCCC [Compound 34],Relative rate,[1]; [4],6
CCCCCC(=O)CC [Compound 35],Relative rate,[1]; [4],2
O=C(CCl)CCl [Compound 36],Relative rate,[1],6
C#CC(=O)CCl [Compound 37],Relative rate,[1]; [4],2
"C#CC(=O)CCC(=O)OC [Compound 38, Methyl-4-oxo-5-hexynoate]",Relative rate,[1]; [4],< 0.1
"C#CC(=O)CCC [Compound 39, 1-Hexyn-3-one]",Relative rate,[1]; [4],0
CC(C)[C@@H]1CC[C@@H](C)CC1=O [Compound 41],Relative rate,[1],3.4
O=C1C=CCCC1 [Compound 42],Relative rate,[1]; [4],0
CC1=CC(=O)CCC1 [Compound 43],Relative rate,[1]; [4],0
O=C1C2CCC(C2)C1Cl (stereo not drawn) [Compound 45],Relative rate,[1]; [4],2
CC(=O)C1CC2C=CC1C2 (stereo not drawn) [Compound 46],Relative rate,[1]; [4],0
O=C1CC2C=CC1C2 (stereo not drawn) [Compound 47],Relative rate,[1]; [4],0
CC(=O)COc1ccccc1 [Compound 48],Relative rate,[1]; [4],7
CN(C)CCC(=O)c1ccccc1 [Compound 49],Relative rate,[1],8
CCOC(OCC)C(=O)c1ccccc1 [Compound 50],Relative rate,[1]; [4],< 0.1
CC(=O)C#Cc1ccccc1 [Compound 51],Relative rate,[1],< 0.1
CC(=O)c1ccc2c(c1)OCCO2 [Compound 52],Relative rate,[1]; [4],0
CC(=O)c1c[nH]c2ccccc12 [Compound 53],Relative rate,[1]; [4],0
CC(=O)/C=C/c1ccccc1 [Compound 54],Relative rate,[1],0
CC(=O)C1CCc2ccccc2C1=O (stereo not drawn) [Compound 55],Relative rate,[1]; [4],0
O=C1CCSc2ccccc21 [Compound 56],Relative rate,[1]; [4],0
CC(=O)c1ccccn1 [Compound 57],Relative rate,[1]; [4],1.8
CCC(=O)c1ccccc1 [Compound 58],Relative rate,[1],< 1
CCC(C)=O [Compound 59],Relative rate,[1],100
CCCC(C)=O [Compound 60],Relative rate,[1],6
CCCCC(C)=O [Compound 61],Relative rate,[1],5
CCCCCC(C)=O [Compound 62],Relative rate,[1]; [4],5
CC(=O)C(C)O (stereo not drawn) [Compound 63],Relative rate,[1]; [4],2
"C#CC(C)=O [Compound 64, 1-Butyn-3-one]",Relative rate,[1],1
CC(=O)C(C)Cl (stereo not drawn) [Compound 65],Relative rate,[1],11
CC(=O)C1CC1 [Compound 66],Relative rate,[1]; [4],11
CSC(C)C(C)=O (stereo not drawn) [Compound 67],Relative rate,[1]; [4],5
CC(=O)C(C)CO (stereo not drawn) [Compound 68],Relative rate,[1]; [4],0
COC(OC)C(C)=O [Compound 69],Relative rate,[1]; [4],5
C/C=C/C(C)=O [Compound 70],Relative rate,[1]; [4],< 0.1
CO/C=C/C(C)=O [Compound 71],Relative rate,[1]; [4],0
"NC(=O)c1ccc[n+]([C@@H]2O[C@H](COP(=O)([O-])OP(=O)(O)OC[C@H]3O[C@@H](n4cnc5c(N)ncnc54)[C@H](O)[C@@H]3O)[C@@H](O)[C@H]2O)c1 [NAD, nicotinamide adenine dinucleotide]",Km,[2],525 µM
"NC(=O)C1=CN([C@@H]2O[C@H](COP(=O)(O)OP(=O)(O)OC[C@H]3O[C@@H](n4cnc5c(N)ncnc54)[C@H](O)[C@@H]3O)[C@@H](O)[C@H]2O)C=CC1 [NADH, reduced nicotinamide adenine dinucleotide]",Product inhibition type versus 2-propanol,[2],noncompetitive inhibitors
same,Product inhibition type versus NAD,[2],competitive inhibition
CC(C)=O [acetone],Product inhibition type versus 2-propanol,[2],noncompetitive inhibitors
same,Product inhibition type versus NAD,[2],noncompetitive inhibition
